Results reported in US7105543B2, “4-, 5-, 6- and 7-indole derivatives useful for the treatment of CNS disorders” (H. Lundbeck A/S, priority 2000, dated 2006).
Like-named read-outs stand apart in the source and are kept apart here.

Experiments:
dopamine D2 receptor = molecular target: T1, dopamine D2 receptor (Rattus norvegicus, UniProt P61169); assay: Inhibition of the binding of [3H]Spiperone to D2 receptors
T1 construct: from tissue
Protocol: Inhibition of the Binding of [^3H]Spiperone to D2 Receptors
The compounds were tested with respect to affinity for the dopamine D2 receptor by determining their ability to inhibit the binding of [^3H]Spiperone to D2 receptors by the method of Hyttel et al. J. Neurochem. 1985, 44, 1615.

[1] = molecular target: T2, human cloned dopamine D4.2 receptors expressed in CHO-cells (Homo sapiens, UniProt P21917, DEL265-296); assay: Inhibition of binding of [3H]YM-09151-2 to D4.2 receptors
T2 construct: expressed in transfected cells; host or cells: CHO cells
T2 sequence (P21917 with tags, fused parts or gaps DEL265-296): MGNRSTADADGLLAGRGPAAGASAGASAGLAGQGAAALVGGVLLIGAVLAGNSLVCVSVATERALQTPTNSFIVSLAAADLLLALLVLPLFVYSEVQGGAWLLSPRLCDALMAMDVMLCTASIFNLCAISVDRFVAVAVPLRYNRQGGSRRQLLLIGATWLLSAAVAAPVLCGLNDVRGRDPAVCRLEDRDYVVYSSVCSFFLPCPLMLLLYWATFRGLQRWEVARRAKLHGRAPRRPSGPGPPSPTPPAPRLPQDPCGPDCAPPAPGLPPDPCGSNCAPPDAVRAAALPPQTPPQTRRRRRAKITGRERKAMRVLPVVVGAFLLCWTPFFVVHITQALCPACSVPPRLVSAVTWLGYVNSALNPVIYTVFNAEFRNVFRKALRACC
Protocol: Inhibition of Binding of [^3H]YM-09151-2 to D4.2 Receptors
By this method, the inhibition by drugs of the binding of [^3H]YM-09151-2 (0.06 nM) to membranes of human cloned dopamine D4.2 receptors expressed in CHO-cells is determined in vitro. The method is modified from NEN Life Science Products, Inc., technical data certificate PC2533-10/96.

D4 receptor = molecular target: T3, D4 receptor (Homo sapiens, UniProt P21917); conditions: various in vitro efficacy assays, literature; cited from earlier work
T3 sequence (P21917 1-419): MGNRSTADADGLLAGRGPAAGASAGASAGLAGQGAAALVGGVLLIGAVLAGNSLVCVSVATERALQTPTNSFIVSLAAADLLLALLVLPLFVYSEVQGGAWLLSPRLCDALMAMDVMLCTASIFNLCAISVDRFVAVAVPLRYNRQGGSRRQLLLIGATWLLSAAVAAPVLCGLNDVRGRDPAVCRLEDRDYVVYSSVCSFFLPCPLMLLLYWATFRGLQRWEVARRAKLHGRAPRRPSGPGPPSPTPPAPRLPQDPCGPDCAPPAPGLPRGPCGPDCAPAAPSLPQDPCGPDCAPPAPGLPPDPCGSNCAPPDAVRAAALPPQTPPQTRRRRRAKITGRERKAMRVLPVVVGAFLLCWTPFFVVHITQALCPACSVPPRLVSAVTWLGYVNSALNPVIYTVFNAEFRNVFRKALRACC

[2] = inhibition of [3H]Spiperone binding, read-out: D2-Receptor IC50

T1 sequence (P61169 whole entry): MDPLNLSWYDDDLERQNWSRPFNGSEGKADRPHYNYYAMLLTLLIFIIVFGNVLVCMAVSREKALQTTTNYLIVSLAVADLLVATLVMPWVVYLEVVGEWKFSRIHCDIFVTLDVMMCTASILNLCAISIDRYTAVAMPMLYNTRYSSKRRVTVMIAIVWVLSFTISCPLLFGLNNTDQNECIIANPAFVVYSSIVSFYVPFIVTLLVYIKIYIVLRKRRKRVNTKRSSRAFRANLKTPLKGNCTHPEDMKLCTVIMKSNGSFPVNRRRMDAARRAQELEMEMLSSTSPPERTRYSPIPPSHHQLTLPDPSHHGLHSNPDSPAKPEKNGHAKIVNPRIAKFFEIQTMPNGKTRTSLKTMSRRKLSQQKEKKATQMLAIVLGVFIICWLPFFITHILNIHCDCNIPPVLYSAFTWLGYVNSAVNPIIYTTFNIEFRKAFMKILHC

Structure (SMILES)	IC50 (dopamine D2 receptor) [nM]	IC50 [1] [nM]	IC50 (dopamine D2 receptor; [2]) [nM]	D4-receptor, second figure after the slash in the IC50 cell ([1]; printed as '<50/89', meaning of the second figure not explained) [nM]	Functional activity at the D4 receptor (in words) (D4 receptor)
Clc1ccc(N2CCN(Cc3ccc4[nH]ccc4c3)CC2)cc1 [Compound 1a, 5-[[4-(4-chlorophenyl)piperazin-1-yl]methyl]-1H-indole]	1700	7.5	–	–	–
c1cc2cc(CN3CCN(c4ccc5[nH]ccc5c4)CC3)ccc2[nH]1 [Compound 1b, 5-[[4-(5-indolyl)piperazin-1-yl]methyl]-1H-indole]	–	< 50	1000	89	–
COc1ccc(N2CCN(Cc3ccc4[nH]ccc4c3)CC2)cc1 [Compound 1c, 5-[[4-(4-methoxyphenyl)piperazin-1-yl]methyl]-1H-indole]	> 10000	25	–	–	–
c1ccc(N2CCN(Cc3ccc4[nH]ccc4c3)CC2)cc1 [Compound 1d, 5-[[4-phenylpiperazin-1-yl]methyl]-1H-indole]	–	31	940	–	–
Clc1ccc(C2=CCN(Cc3ccc4[nH]ccc4c3)CC2)cc1 [Compound 1e, 5-[4-(4-Chlorophenyl)-3,6-dihydro-2H-pyridin-1-ylmethyl]-1H-indole]	–	1.4	190	–	–
Clc1ccc(N2CCN(Cc3ccc4cc[nH]c4c3)CC2)cc1 [Compound 1f, 6-[[4-(4-chlorophenyl)piperazin-1-yl]methyl]-1H-indole]	> 10000	–	–	–	–
COc1ccc(N2CCN(Cc3ccc4cc[nH]c4c3)CC2)cc1 [Compound 1g, 6-[[4-(4-methoxyphenyl)piperazin-1-yl]methyl]-1H-indole]	> 10000	9.1	–	–	–
CC(C)Oc1cccnc1N(C)C1CCN(Cc2ccccc2)CC1 [Compound U-101958]	–	–	–	–	partial D4 receptor agonists
